Experimental data taken from article PMC9781803, “Phenotypic and Target-Directed Screening Yields New Acaricidal Alternatives for the Control of Ticks” (Molecules, 2022).

How the values were obtained:
[1] = set-up: method as in PMID 28481276; conditions: in mice; cited from earlier work
[2] = tested on: J774.1 murine macrophages; assay: Cytotoxicity assay on murine macrophages (MTT); assay type: cell-based; conditions: Mus musculus, J774.1, 48 h, read-out: IC50 (µM) Mammalian Cells
Procedure: J774.1 murine macrophages (ATCC, Rockville, MD, USA) were grown in a DMEM culture medium containing 4 mM L-glutamine, and supplemented with 10% FCS. The cells were seeded into a 96-well plate (5 × 10^4 cells in 200 µL culture medium) and incubated at 37 °C in a 5% CO2 atmosphere for 48 h, to allow cell adhesion before drug testing. Afterward, the cells were exposed for 48 h to the compounds (25–400 μM) or the vehicle (0.4% DMSO), and additional controls (cells in medium) were used in each test. Cell viability was then assessed by measuring the mitochondria-dependent reduction of MTT to formazan: for this, MTT in sterile PBS (0.2% glucose), pH 7.4, was added to the macrophages, to a final concentration of 0.1 mg/mL, and the cells were then incubated at 37 °C for 3 h. After removing the medium, the formazan crystals were dissolved in 180 μL of DMSO and 20 μL of MTT buffer (0.1 M glycine, 0.1 M NaCl, 0.5 mM EDTA, pH 10.5), and the absorbance was measured at 560 nm. The IC50 was defined as the drug concentration at which 50% of the cells were viable, relative to the control (no drug added), and was determined by analysis using OriginLab 8.5 Corporation, Northampton, MA, USA, sigmoidal regression (% of viable cells compared to the logarithm of the compound concentration). The tests were performed in triplicate in two independent experiments.

[3] = tested on: R. microplus (Mozo strain) larvae; assay: Larval Immersion Test (LIT); assay type: in vivo; conditions: compounds 1.0 mM, 10 min immersion, 24 h
Procedure: (§1) This assay was performed based on the method of Castro-Janer et al., 2011. Fully engorged females of R. microplus (Mozo strain) were incubated in Petri dishes at 27 °C and 85–90% relative humidity for 14 days. […] The tubes were incubated in the same conditions as described above. The larvae were ready for testing after 14 to 21 days from egg-hatching. For the test, the compounds were diluted in DMSO, and were later resuspended in distilled water, always using 15% DMSO of the final solution volume. The concentrations for the different compounds for the final immersion solution are 1 mg/mL for the extracts, and 1 mM for the compounds. […] For the immersion procedure, tubes containing the larvae were placed vertically, without the cotton plug, and the larvae were taken with a brush from the top of the tube, ensuring they were viable. A cluster with a diameter of 2 mm of larvae was collected with a brush, and was later immersed in each solution, as well as in both control solutions, for 10 min. After this time, the solutions were drained, and the larvae were placed in 8.5 cm × 7.5 cm Whatman No. 1 filter papers. The filters were folded in the middle of the 8.5 cm side, and closed with 3 bulldog clips, forming packets. These packets were incubated for 24 h, under the same conditions as described previously, and then the percent of mortality was determined, considering it as the % of the control.

[4] = tested on: fully engorged females of the Mozo susceptible strain of R. microplus; assay: Adult Immersion Test (AIT); assay type: in vivo; conditions: compounds 1.5 mM, 15 min immersion, 14 days
Procedure: This essay was performed based on Drummond et al., 1973, as each group of 5 fully engorged females of the Mozo susceptible strain of R. microplus was immersed in 50 mL tubes containing 10 mL of compounds at different concentrations (0.5, 1, 1.5, 2, 3.5 mM) for 15 min in four replicates. Four negative control groups were used (DMSO 10%). After immersion, the fully engorged females were lightly dried with absorbent paper. They were then placed in 100 mm disposable Petri dishes with their respective identification, and immediately incubated at 27 °C in an atmosphere with relative humidity (RH) of 85-90% for 14 days. […] The tubes carrying the eggs were closed with hydrophilic cotton, and were returned to the incubator chamber under the same conditions until the eggs hatched. The reproductive efficacy, as well as % control of each compound on R. microplus, was calculated according to published reports. The results were verified in two independent experiments.

[5] = set-up: method as in PMID 28481276; conditions: experimental data; cited from earlier work
[6] = tested on: R. microplus; assay: Acaricidal activity on R. microplus (LIT and AIT, overall statement); assay type: in vivo; conditions: LIT 1 mM and AIT 1.5 mM
Procedure: as §1, with “After immersion, the fully engorged females were lightly dried with absorbent paper. […] The tubes carrying the eggs were closed with hydrophilic cotton, and were returned to the incubator chamber under the same conditions until the eggs hatched. The reproductive efficacy, as well as % control of each compound on R. microplus, was calculated according to published reports. The results were verified in two independent experiments. This” for “This”, “2011.” for “2011. Fully engorged females of R. microplus (Mozo strain) were incubated in Petri dishes at 27 °C and 85–90% relative humidity for 14 days.”, “volume.” for “volume. The concentrations for the different compounds for the final immersion solution are 1 mg/mL for the extracts, and 1 mM for the compounds.”

[7] = tested on: embryonic cell line BME26; assay: Phenotypic screening on BME26 cell cultures (MTT viability); assay type: cell-based, R. microplus
Procedure: The embryonic cell line BME26 from R. microplus (Centro de Biotecnologia, Universidade Federal do Rio Grande do Sul, Porto Alegre, RS, Brazil) was grown as adherent monolayers in a complete medium, as described previously, which consisted of L-15B300 medium supplemented with 5% heat-inactivated Fetal Bovine Serum (FBS) (Gibco Co., Grand Island, NY), 10% Tryptose Phosphate Broth (TPB) (BD), penicillin (100 U/mL), streptomycin ([…], Gibco Co., Grand Island, NY, USA), and 0.1% bovine lipoprotein concentrate (ICN), (pH 7.2). The suspension of embryonic BME26 cells from R. microplus was seeded into 24-well plates (5 × 10^5 cells/well) to a final volume of 500 μL in a complete medium, and allowed to attach. After 24 h incubation at 34 °C, the extracts (100 µg/mL final concentration) and the compounds were added to the final concentrations indicated (1–100 µM), and 0.05% dimethylsulfoxide (DMSO) was used in the negative control wells. After 24 h of treatment, 50 μL of 3-(4,5-dimethylthiazol-2-yl)-2,5-diphenyltetrazolium bromide (MTT) prepared in serum-free medium (5 mg/mL) was added to each well. The media were discarded after 2 additional hours of incubation, and 1 mL of acid-isopropyl alcohol (0.15% HCl in isopropyl alcohol) was added to dissolve the formazan crystals. The mixture was transferred to 1.5 mL tubes, centrifuged at 6000× g for 15 min, and the clear supernatant was collected in new tubes for absorbance measurement at 570 nm using quartz cuvettes in a UVmini-1240 UV–vis spectrophotometer (Shimadzu, Japan). Absorbance values of the control treatment were used for normalization (100% viability). The activity was determined by analysis using OriginLab8.5® sigmoidal regression (% of viable cells compared to the logarithm of the compound concentration). The half-maximal inhibitory concentration (IC50), defined as the drug concentration at which 50% of the cells were viable relative to the control (no drug added), was used as a measurement of activity. These experiments were performed in triplicate for each compound.

In the case of `O=C(/C=C/c1cccs1)/C=C/c1cccs1` [compound 796], the “LD50 (mg/kg)” value [1] is listed as >2000^+ mg/kg, the IC50 [2] is listed as greater than 50 µM and the “% of Mortality LIT” value [3] is listed as 36 ± 8%. The “% of Mortality AIT” value [4] was 20 ± 1%, the “Mutagenicity by Ames Test” value [5] was “Negative *” and the “acaricidal activity (in words)” value [6] was “acaricidal potential against R. microplus similar to Amitraz”. It also gave an IC50 ([7]; BME26 cells, 24 h, MTT, read-out: IC50) of 15 ± 3 µM and an inhibition at 100 µM ([7]; synthetic compounds at 100 μM, BME26, 24 h, read-out: % of Growth Inhibition) of 93%.
